Measurements from PubChem BioAssay (NCI).
Several values for one entry are separate records, joined by “and”; a condition that tells them apart may be missing. Equal entries are not always repeated.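 Dose response: 5 concentrations. Exposure: 48 h. Format: 96-well plates. Endpoint: linear interpolation; highest concentration if not reached. Here, GI50 denotes the concentration required for 50% inhibition of growth. At the TGI there is no net growth.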 Where a SMILES comes first, the peptide text is derived from it. [ ]: non-standard residue; d: D form. Ac5c = NC1(C(=O)O)CCCC1

Tests used:
Test in all cases: DTP human tumour cell line panel, 48 h
HOP-62 NSCLC = system: HOP-62 NSCLC
A549 NSCLC = system: A549 NSCLC
HS 578T breast = system: HS 578T breast
NCI-H522 lung = system: NCI-H522 lung
SR leukemia = system: SR leukemia
IGROV1 ovarian = system: IGROV1 ovarian
DU-145 prostate = system: DU-145 prostate
SF-539 CNS = system: SF-539 CNS
HT29 colon = system: HT29 colon
NCI-H23 lung = system: NCI-H23 lung

| SMILES | GI50 (HOP-62 NSCLC) | TGI (HOP-62 NSCLC) | GI50 (A549 NSCLC) | TGI (A549 NSCLC) | GI50 (HS 578T breast) | GI50 (NCI-H522 lung) | TGI (NCI-H522 lung) | GI50 (SR leukemia) | TGI (SR leukemia) | GI50 (IGROV1 ovarian) | TGI (IGROV1 ovarian) | GI50 (DU-145 prostate) | TGI (DU-145 prostate) | GI50 (SF-539 CNS) | TGI (SF-539 CNS) | GI50 (HT29 colon) | TGI (HT29 colon) | GI50 (NCI-H23 lung) | TGI (NCI-H23 lung) | TGI (HS 578T breast) |
| --- | --- | --- | --- | --- | --- | --- | --- | --- | --- | --- | --- | --- | --- | --- | --- | --- | --- | --- | --- | --- |
| Cn1c([N+](=O)[O-])cnc1/C=C1\Oc2ccccc2C1=O | 1.07 µM | 4.42 µM | 1.02 µM | 5.12 µM | 1.15 µM | 0.552 µM | 2.26 µM | 0.0392 µM | 0.534 µM | 0.6 µM | 5.87 µM | 0.307 µM | 1.15 µM | 1.78 µM | 4.74 µM | 0.203 µM | 0.629 µM | 0.37 µM | 2.61 µM |  |
| C=C1C(=O)O[C@H]2[C@H]1CC/C(CNC(=O)c1cc3cc(OC)ccc3[nH]1)=C\CC[C@@]1(C)O[C@@H]21 | 3.22 µM | 13.8 µM | 3.69 µM | 14.4 µM | 2.88 µM | 0.7 µM | 2.55 µM | 2.24 µM | 10.1 µM | 2.04 µM | 5.94 µM | 1.21 µM | 2.78 µM | 1.42 µM | 3 µM | 1.41 µM | 4.51 µM | 1.77 µM | 4.38 µM | 11.8 µM |
| CC(C)c1ccc(C(=O)Nc2nc3ccc(O)cc3s2)cc1 | 1.74 µM | > 100 µM | 2.33 µM | > 100 µM | 11.4 µM | 0.693 µM | > 100 µM | 0.715 µM | 68.7 µM | 0.361 µM | > 100 µM | 1.7 µM | > 100 µM | 1.22 µM | 11.6 µM | 3.38 µM | 17.8 µM | 3.52 µM | > 100 µM | > 100 µM |
| O=S(=O)(NC1=NCCN1C(=S)SN1CCn2c1nsc2=S)c1ccc(Br)cc1 | 52.4 µM | > 100 µM | > 100 µM | > 100 µM | 21.4 µM | 15 µM | 36.8 µM | 24.2 µM | 74.1 µM | 30.7 µM | 95 µM | 28.9 µM | > 100 µM | 18.6 µM | 38.9 µM | 42.5 µM | > 100 µM | 53.2 µM | > 100 µM | 67.2 µM |
| Cc1cc(I)cc(CN(C)CCCN2CCSCC2)c1O | 18.4 µM | 41.9 µM | 30.7 µM | > 100 µM | 19.1 µM | 23.6 µM | 55.9 µM | 10.6 µM | 25.3 µM | 33.3 µM | > 100 µM | 41 µM | > 100 µM | 23.4 µM | 62.7 µM | 18.8 µM | 43.1 µM | 23.5 µM | 65.1 µM | 48.3 µM |
| O=C1Nc2ccc(C(=O)c3ccco3)cc2/C1=C/c1cc(Cl)c(O)c(Cl)c1 | 7.45 µM | > 22.1 µM | 6.77 µM | > 24 µM | 4.94 µM | 3.91 µM | 11.9 µM | 3.03 µM | 18.8 µM | 3.36 µM | > 20.7 µM | 4.75 µM | > 18.4 µM | 3.93 µM | 9.49 µM | 5.75 µM | > 21.2 µM | 4.74 µM | 21.7 µM | > 21.7 µM |
| O=c1c2cc(Cl)ccc2oc2ccc(OCCCCCN3CCCCC3)cc12 | 7.03 µM | 14.4 µM | 4.78 µM | 10.9 µM | 6.16 µM | 3.48 µM | 10.4 µM | 1.47 µM | 5.47 µM | 6.77 µM | 14.4 µM | 6.4 µM | 12.7 µM | 4.21 µM | 10.6 µM | 1.27 µM | 3.31 µM | 5.37 µM | 12 µM | 15.1 µM |
| CCC1(CC)C(=O)OC(=O)C1(CC)CC |  | > 100 µM |  | > 100 µM |  |  | > 100 µM |  | > 100 µM |  | > 100 µM |  | > 100 µM |  | > 100 µM |  | > 100 µM |  | > 100 µM | > 100 µM |
| Nc1ccc(N(S(=O)(=O)c2ccccc2)S(=O)(=O)c2ccccc2)c(Cl)c1 |  | > 100 µM |  | > 100 µM |  |  | > 100 µM |  | > 100 µM |  | > 100 µM |  | > 100 µM |  | > 100 µM |  | > 100 µM |  | > 100 µM | > 100 µM |
| CCOC(=O)Nc1nc2ccc(Cn3cccc3)cc2[nH]1 |  | > 67.1 µM |  | > 100 µM |  |  | 2.1 µM |  | > 36.2 µM |  | > 100 µM |  | > 52.5 µM |  | 7.09 µM |  | > 56.3 µM |  | > 100 µM | > 100 µM |
| COC(=O)CCc1cc(OC)c2c(c1)C(C(=O)OC)C(c1ccc(OC)c(OC)c1)O2 (centres undefined) | > 100 µM and 36.6 µM | > 100 µM | > 100 µM and 38 µM | > 100 µM | > 100 µM and 43.4 µM | > 100 µM and 19.9 µM | > 100 µM |  | > 100 µM | > 100 µM and 21.5 µM | > 100 µM | > 100 µM | > 100 µM | > 100 µM and 11.1 µM | > 100 µM and 47.3 µM |  | > 100 µM |  | > 100 µM | > 100 µM |
| COc1cc(C(=O)/C(C)=C/c2c[nH]c3ccccc23)cc(OC)c1OC | 0.00541 µM | 11.9 µM | 0.0041 µM | > 100 µM | 0.00478 µM | 0.00282 µM | 0.00728 µM | 0.00333 µM |  | 0.00566 µM | > 100 µM | 0.00383 µM | > 100 µM | 0.0028 µM | 0.0129 µM | 0.00402 µM |  | 0.00516 µM | > 100 µM | 48 µM |
| NC1(C(=O)NC2(C(=O)O)CCCC2)CCCC1 (H-[Ac5c]-[Ac5c]-OH) |  | > 100 µM |  | > 100 µM |  |  | > 100 µM |  | > 100 µM |  | > 100 µM |  | > 100 µM |  | > 100 µM |  | > 100 µM |  | > 100 µM | > 100 µM |
